Results from ChEMBL document CHEMBL1201862, “PubChem BioAssay data set” (2004).
The source made the active and inactive calls.

How the values were obtained:
[1] = molecular target: T1, Sentrin-specific protease 1 (Homo sapiens, UniProt Q9P0U3); experiment: potency of human SENP1 inhibitors, dose response, biochemical, kinetic FRET (AID 651697); format: functional; conditions: read-out: IC50_Mean
T1 sequence (Q9P0U3 whole entry): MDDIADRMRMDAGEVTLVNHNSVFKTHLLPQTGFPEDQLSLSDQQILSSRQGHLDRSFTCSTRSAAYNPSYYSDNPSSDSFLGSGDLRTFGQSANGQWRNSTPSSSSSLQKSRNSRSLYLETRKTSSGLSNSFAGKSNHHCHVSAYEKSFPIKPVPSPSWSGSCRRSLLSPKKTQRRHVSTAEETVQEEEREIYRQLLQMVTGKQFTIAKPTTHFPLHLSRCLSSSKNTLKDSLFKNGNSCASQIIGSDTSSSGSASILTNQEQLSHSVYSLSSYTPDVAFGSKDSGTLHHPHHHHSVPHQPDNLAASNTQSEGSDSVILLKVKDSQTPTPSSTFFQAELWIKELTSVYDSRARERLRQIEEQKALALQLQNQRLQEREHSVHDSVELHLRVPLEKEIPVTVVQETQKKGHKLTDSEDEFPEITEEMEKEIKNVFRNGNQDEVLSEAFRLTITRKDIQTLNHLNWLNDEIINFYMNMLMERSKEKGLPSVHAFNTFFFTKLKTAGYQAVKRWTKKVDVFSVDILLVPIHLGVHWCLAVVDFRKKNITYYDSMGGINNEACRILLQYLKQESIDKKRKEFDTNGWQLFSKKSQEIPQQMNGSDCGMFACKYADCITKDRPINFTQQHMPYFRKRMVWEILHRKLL

[2] = molecular target: T1, Sentrin-specific protease 1; experiment: Dose response confirmation of small molecule inhibitors of the catalytic domain of the SUMO protease, SENP1 in a FRET assay.; format: functional; conditions: read-out: IC50_Mean
[3] = molecular target: Dual specificity protein phosphatase 3 (Homo sapiens, UniProt P51452); experiment: VHR phosphatase inhibition, dose response, selectivity assay for STEP inhibitor project, biochemical (AID 602374); format: functional; conditions: read-out: IC50_Mean
[4] = molecular target: Tyrosine-protein phosphatase non-receptor type 11 (Homo sapiens, UniProt Q06124); experiment: SHP2 phosphatase inhibition, dose response, selectivity assay for STEP inhibitor project, biochemical (AID 602367); format: functional; conditions: read-out: IC50_Mean
[5] = molecular target: Tyrosine-protein phosphatase non-receptor type 5 (Homo sapiens, UniProt P54829); experiment: STEP phosphatase inhibitors, confirmation, biochemical, fluorescence intensity, uHTS hits (AID 602372); format: functional; conditions: read-out: IC50_Mean
[6] = molecular target: T2, Tyrosine-protein phosphatase non-receptor type 22 (Homo sapiens, UniProt Q9Y2R2); experiment: PTPN22 phosphatase inhibition, dose response, selectivity assay for STEP inhibitor project, biochemical (AID 624241); format: functional
T2 sequence (Q9Y2R2 whole entry): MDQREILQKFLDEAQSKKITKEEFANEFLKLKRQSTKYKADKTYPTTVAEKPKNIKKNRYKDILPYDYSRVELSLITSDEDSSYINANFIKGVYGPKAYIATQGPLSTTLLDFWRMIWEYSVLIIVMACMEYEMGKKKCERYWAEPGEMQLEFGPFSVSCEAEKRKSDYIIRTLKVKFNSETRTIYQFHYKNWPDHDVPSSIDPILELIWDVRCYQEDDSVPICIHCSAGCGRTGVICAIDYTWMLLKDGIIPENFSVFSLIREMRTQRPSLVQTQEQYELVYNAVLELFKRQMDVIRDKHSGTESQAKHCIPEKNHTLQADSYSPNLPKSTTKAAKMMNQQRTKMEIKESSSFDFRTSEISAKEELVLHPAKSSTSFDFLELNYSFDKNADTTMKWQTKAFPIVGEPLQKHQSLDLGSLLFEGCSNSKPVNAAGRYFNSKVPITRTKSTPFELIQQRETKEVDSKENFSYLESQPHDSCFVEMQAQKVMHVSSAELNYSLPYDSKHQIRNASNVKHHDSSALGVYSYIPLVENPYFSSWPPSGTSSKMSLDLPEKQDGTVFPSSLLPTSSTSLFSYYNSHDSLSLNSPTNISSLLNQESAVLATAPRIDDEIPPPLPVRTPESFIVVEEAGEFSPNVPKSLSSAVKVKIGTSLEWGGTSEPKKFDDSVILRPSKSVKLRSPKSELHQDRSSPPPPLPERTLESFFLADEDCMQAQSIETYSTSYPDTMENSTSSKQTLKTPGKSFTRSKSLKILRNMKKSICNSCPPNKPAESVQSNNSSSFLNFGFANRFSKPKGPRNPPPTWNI

[7] = molecular target: Ras and Rab interactor 1/Tyrosine-protein kinase ABL1 (Homo sapiens, UniProt P00519+Q13671); format: functional;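 further: biochemical TR-FRET dose-response test measuring inhibition of binding between Rin1 and Abl proteins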
Beta-galactosidase = Beta-galactosidase (Escherichia coli, UniProt Q8VNN2); experiment: Dose response counterscreen for EBI2 assay utilizing the enzyme, b-galactosidase.; format: functional
[8] = HEK293T cytotoxicity, dose response, cytotoxicity control for miR-122 modulator project, cell-based, inhibitor set, cherry-pick, set 2 (AID 720697); format: functional
[9] = HepG2 cell cytotoxicity, dose response, cytotoxicity control, plate reader, cherry-pick, antagonist series (AID 743416); format: functional, cell-based
[10] = A549 cell cytotoxicity, dose response, cytotoxicity control, plate reader, cherry-pick, antagonist series (AID 743412); format: functional, cell-based
[11] = LGR2 antagonists, dose response, cell-based, HEK293, CRE-luciferase reporter, cherry pick, set 2 (AID 743343); format: functional;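 further: transfected cells were stimulated with diluted bursicon conditioned medium after compound addition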
[12] = HEK293 cell cytotoxicity, dose response, cytotoxicity control, plate reader, cherry-picked samples (AID 743446); format: functional, cell-based
[13] = HEp-2 cell cytotoxicity, dose response, cytotoxicity control for RSV inhibitor project, HTS (AID 2410); format: functional; conditions: human respiratory syncytial virus
cells [14] = experiment: cells
[15] = MC4R antagonists, dose response, counter-screen for LGR2 antagonist project, cell-based, plate reader, cherry pick (AID 743444); format: functional;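 further: transfected HEK 293 cells stimulated with alpha-MSH peptide; potency of inhibitors of the alpha-MSH evoked signal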
[16] = T. cruzi intracellular amastigote growth inhibition, dose response, imaging, CA-I/72 strain, bovine embryo skeletal muscle, dry powder (AID 651885); format: functional, cell-based
[17] = molecular target: T3, Heat shock factor protein 1 (Mus musculus, UniProt P38532); experiment: HSF1 potentiators in luciferase reporter cells, confirmation, cell-based, NIH3T3, luminescence, dose retest (AID 435004); format: functional;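 further: stress induced by proteasome inhibitor MG132 added 30 min after compound; luciferase reporter driven by HSF1 response element in NIH3T3 cells; actives raise luminescence as potentiators of the MG132 stress response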
T3 sequence (P38532 whole entry): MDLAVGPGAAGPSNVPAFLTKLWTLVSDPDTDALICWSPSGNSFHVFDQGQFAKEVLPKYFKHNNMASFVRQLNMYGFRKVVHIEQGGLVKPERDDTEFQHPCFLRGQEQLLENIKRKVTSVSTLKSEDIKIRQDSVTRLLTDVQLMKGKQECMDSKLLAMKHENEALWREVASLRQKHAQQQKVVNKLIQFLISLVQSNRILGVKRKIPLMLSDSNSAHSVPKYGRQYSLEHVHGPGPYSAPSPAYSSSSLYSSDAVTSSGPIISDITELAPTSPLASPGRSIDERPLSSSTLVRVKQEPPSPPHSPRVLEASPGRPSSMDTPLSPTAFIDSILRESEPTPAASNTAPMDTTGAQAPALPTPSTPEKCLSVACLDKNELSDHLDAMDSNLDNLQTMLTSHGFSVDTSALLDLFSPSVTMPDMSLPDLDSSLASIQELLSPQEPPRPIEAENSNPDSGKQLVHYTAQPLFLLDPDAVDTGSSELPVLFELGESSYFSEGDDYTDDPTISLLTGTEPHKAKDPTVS

[18] = molecular target: 1-phosphatidylinositol 4,5-bisphosphate phosphodiesterase beta-3 (Homo sapiens, UniProt Q01970); experiment: Fluorescence-based biochemical high throughput dose response assay to identify inhibitors of phospholipase C isozymes (PLC-B3).
[19] = molecular target: 1-phosphatidylinositol 4,5-bisphosphate phosphodiesterase gamma-1 (Homo sapiens, UniProt P19174); experiment: Counterscreen for inhibitors of phospholipase C isozymes (PLC-B3): Fluorescence-based biochemical high throughput dose response assay to identify inhibitors of phospholipase C isozymes (PLC-gamma1).
HeLa = experiment: HeLa cell cytotoxicity, dose response, cytotoxicity control, ATP luminescence, cherry-pick samples (AID 687004); format: functional, cell-based; conditions: Homo sapiens
cells [20] = format: functional, cell-based
[21] = molecular target: T4, Nuclear receptor subfamily 0 group B member 1 (Homo sapiens, UniProt P51843); format: functional, cell-based;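 further: HEK293T cells transfected with SF-1 and DAX-1 plus StAR promoter luciferase reporter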
T4 sequence (P51843 whole entry): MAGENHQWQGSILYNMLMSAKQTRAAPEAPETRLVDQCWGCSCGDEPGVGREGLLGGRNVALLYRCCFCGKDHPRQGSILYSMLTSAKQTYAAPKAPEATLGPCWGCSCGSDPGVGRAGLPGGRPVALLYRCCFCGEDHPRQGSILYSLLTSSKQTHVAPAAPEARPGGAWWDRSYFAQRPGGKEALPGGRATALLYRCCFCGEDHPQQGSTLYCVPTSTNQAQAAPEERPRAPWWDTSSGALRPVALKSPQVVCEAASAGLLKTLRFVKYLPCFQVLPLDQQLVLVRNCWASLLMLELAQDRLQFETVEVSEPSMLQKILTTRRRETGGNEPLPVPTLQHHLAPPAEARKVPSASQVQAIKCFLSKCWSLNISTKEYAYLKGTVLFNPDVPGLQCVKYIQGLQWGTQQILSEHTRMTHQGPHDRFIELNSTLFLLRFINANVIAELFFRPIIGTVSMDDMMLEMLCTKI

[22] = molecular target: T5, Trace amine-associated receptor 1 (Homo sapiens, UniProt Q96RJ0); experiment: Fluorescence-based cell-based high throughput dose response assay to identify agonists of the human trace amine associated receptor 1 (TAAR1).; format: functional
T5 sequence (Q96RJ0 whole entry): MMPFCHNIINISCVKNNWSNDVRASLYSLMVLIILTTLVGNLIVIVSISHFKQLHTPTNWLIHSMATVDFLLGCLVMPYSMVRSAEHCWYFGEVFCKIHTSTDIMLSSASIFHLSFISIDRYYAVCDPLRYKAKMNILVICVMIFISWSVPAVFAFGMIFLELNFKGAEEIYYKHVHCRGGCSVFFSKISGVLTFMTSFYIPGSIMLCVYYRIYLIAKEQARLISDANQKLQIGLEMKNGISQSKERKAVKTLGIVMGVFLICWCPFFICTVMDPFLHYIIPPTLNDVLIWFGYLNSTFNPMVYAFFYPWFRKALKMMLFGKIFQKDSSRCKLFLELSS

[23] = molecular target: T5, Trace amine-associated receptor 1; experiment: Counterscreen for agonists of the human trace amine associated receptor 1 (hTAAR1): Fluorescence-based cell-based high throughput dose response assay to identify hTAAR1 agonist that also desensitize TAAR1 receptor response.; format: functional
cells [24] = format: functional, cell-based; remark: listed apart in the source
cells [25] = format: functional, cell-based; remark: listed apart in the source

Chain of Tyrosine-protein phosphatase non-receptor type 11 (Q06124 whole entry): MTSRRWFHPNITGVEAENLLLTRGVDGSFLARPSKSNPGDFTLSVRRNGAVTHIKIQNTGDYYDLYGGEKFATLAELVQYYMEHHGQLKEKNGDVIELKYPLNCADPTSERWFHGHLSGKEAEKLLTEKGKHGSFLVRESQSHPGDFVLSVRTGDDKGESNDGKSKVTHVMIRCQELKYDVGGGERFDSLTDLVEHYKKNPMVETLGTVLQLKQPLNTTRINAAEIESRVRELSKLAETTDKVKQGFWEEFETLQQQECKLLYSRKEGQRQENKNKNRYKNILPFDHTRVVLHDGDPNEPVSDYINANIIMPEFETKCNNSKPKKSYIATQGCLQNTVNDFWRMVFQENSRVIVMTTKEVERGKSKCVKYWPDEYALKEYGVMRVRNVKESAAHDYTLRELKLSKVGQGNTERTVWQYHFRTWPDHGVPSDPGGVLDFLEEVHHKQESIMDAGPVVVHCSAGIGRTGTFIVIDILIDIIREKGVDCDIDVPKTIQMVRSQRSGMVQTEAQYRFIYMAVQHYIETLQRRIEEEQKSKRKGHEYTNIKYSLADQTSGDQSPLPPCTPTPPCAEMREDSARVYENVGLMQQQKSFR
Chain of Dual specificity protein phosphatase 3 (P51452 whole entry): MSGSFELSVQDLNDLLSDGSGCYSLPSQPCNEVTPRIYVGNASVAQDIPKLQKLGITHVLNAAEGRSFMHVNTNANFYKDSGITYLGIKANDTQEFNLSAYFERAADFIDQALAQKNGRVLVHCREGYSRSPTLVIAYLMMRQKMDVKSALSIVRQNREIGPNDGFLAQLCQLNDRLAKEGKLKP
Chain of Tyrosine-protein phosphatase non-receptor type 5 (P54829 whole entry): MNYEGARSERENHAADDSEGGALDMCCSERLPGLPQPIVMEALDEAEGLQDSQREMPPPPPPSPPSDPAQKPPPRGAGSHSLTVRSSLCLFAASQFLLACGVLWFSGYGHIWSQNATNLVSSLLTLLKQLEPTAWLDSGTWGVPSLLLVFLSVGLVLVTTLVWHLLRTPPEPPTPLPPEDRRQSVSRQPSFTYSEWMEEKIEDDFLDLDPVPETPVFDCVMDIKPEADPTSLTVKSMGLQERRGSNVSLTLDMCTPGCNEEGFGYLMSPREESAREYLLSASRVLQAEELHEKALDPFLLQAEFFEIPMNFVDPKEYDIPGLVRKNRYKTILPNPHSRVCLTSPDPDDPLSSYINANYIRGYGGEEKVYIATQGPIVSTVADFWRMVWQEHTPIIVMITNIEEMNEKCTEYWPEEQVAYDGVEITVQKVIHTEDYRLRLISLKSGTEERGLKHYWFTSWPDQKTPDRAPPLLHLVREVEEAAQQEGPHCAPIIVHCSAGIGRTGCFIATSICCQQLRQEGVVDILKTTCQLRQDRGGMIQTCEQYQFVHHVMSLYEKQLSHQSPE
Chain of Beta-galactosidase (Q8VNN2 whole entry): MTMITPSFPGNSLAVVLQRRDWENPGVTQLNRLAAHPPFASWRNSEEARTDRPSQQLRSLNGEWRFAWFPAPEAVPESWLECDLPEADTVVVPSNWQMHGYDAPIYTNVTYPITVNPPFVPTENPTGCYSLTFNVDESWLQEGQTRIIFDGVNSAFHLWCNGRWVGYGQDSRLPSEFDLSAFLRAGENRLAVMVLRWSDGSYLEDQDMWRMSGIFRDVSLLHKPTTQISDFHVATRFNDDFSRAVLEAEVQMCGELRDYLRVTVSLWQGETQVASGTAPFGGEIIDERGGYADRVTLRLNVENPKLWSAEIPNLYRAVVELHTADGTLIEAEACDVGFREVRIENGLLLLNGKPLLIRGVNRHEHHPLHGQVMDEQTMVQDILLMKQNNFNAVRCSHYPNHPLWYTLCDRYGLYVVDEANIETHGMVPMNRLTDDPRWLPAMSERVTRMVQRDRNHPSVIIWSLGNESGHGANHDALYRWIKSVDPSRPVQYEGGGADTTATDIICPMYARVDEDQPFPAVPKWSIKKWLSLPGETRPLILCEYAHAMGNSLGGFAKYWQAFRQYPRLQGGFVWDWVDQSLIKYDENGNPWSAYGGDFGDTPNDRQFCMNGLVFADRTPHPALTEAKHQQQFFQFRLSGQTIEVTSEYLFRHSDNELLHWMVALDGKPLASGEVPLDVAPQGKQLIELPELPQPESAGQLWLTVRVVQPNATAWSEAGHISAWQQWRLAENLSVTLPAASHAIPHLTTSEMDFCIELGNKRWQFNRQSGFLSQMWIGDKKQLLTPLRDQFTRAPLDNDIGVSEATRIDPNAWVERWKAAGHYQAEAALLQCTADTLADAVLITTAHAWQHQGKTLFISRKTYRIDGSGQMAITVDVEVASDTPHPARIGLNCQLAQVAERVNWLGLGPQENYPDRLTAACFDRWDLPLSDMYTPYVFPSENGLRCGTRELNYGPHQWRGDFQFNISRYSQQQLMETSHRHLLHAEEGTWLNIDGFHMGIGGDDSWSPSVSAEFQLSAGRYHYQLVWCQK
Chain of 1-phosphatidylinositol 4,5-bisphosphate phosphodiesterase gamma-1 (P19174 whole entry): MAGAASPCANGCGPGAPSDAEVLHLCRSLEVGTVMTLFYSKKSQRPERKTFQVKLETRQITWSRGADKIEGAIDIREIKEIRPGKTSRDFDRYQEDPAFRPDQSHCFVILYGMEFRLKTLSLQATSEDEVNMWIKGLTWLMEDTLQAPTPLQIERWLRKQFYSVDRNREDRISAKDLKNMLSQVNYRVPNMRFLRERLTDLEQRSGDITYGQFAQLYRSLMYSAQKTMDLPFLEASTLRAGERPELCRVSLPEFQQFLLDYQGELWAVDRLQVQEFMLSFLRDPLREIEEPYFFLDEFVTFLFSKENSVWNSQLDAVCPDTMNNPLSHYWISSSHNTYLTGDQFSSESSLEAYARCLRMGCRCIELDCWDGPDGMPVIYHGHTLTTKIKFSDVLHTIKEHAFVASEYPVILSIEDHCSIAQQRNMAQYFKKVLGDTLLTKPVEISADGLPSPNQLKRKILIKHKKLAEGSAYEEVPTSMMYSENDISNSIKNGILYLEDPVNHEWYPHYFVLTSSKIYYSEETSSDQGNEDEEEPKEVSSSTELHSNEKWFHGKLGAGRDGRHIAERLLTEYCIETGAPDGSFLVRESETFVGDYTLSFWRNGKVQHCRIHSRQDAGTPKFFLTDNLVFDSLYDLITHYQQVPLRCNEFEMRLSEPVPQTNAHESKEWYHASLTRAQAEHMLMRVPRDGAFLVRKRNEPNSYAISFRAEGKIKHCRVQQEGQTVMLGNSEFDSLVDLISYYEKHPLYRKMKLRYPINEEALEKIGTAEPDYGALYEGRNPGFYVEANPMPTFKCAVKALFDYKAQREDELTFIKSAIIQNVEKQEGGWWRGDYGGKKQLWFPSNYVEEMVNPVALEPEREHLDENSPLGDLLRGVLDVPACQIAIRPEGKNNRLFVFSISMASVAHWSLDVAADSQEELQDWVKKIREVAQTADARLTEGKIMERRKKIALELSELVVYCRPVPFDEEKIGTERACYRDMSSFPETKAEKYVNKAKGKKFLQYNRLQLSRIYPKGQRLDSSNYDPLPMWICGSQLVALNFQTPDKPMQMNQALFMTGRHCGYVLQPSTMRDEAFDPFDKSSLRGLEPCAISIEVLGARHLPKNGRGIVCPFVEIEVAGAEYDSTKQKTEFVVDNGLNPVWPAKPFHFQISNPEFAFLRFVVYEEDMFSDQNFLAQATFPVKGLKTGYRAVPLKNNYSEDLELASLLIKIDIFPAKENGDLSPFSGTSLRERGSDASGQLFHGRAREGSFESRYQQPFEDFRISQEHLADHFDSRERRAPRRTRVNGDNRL
Chain of 1-phosphatidylinositol 4,5-bisphosphate phosphodiesterase beta-3 (Q01970 whole entry): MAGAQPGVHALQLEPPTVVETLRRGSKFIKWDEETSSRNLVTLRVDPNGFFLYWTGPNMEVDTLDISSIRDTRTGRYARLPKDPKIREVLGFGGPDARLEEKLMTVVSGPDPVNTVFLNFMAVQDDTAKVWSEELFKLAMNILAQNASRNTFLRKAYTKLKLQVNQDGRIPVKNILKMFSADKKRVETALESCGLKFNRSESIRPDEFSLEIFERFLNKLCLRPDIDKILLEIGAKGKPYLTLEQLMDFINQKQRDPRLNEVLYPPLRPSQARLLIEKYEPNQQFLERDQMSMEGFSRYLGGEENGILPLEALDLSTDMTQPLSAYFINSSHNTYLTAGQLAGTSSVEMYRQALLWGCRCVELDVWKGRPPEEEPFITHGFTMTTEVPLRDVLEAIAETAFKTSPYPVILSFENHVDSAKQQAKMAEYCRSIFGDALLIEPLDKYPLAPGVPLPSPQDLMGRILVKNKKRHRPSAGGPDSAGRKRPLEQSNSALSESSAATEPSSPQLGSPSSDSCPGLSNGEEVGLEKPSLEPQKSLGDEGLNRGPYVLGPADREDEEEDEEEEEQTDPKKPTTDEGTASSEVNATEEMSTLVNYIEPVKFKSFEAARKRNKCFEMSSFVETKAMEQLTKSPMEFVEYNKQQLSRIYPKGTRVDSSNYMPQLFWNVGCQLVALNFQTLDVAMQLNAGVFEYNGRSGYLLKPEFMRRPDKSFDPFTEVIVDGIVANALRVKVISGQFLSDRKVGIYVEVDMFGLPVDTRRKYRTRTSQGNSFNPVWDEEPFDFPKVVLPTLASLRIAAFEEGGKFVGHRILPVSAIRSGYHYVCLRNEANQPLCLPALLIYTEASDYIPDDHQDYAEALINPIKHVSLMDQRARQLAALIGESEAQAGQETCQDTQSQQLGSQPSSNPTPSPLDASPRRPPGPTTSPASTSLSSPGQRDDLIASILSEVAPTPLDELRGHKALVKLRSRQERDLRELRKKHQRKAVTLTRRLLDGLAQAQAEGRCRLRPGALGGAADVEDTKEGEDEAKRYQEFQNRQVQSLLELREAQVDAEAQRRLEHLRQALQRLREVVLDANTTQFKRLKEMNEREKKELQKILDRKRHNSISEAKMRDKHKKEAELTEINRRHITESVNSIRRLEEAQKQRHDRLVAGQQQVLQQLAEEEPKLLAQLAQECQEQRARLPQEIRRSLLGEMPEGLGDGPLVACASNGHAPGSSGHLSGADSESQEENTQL

O=C(O)CN1C(=O)S/C(=C2/C(=O)Nc3ccccc32)C1=O
IC50 [1]: 13.7 µM (active)
IC50 [2]: 3.7 µM (active)

COc1cccc(-c2nc(SC)nc3sc(C(=O)NC(C)(C)C)c(N)c23)c1
IC50 [1]: 19.1 µM (active)
IC50 [2]: 15.2 µM (active)

O=C(NN=Cc1ccccc1O)c1cccc([N+](=O)[O-])c1
IC50 [3]: 3.13 µM (active)
IC50 [4]: 2.39 µM (active)
IC50 [5]: 8.95 µM (active)
IC50 [6]: > 100 µM (inactive)

OC[C@@H]1CN(Cc2ccc(Cl)cc2)C[C@H](n2cnc3c(NC4CC4)ncnc32)O1
IC50 [7]: 37.2 µM (inactive)
IC50 (Beta-galactosidase): > 80 µM (inactive)

COc1ccc(-c2c(C(C)=O)c(C)nc3sc4c(c23)NC(c2ccccc2)NC4=O)cc1 (stereo unspecified)
AC50 [8]: 2.66 µM (active)

O=C(COc1ccc(Cl)cc1)N1CCN(Cc2ccccc2)CC1
IC50 (Beta-galactosidase): > 80 µM (inactive)

COc1ccc(CCNC(=O)C2CCN(S(=O)(=O)c3ccc(Cl)cc3)CC2)cc1OC
AC50 [9]: 35.2 µM (active)
AC50 [10]: 35.3 µM (active)

COc1ccccc1N(Cc1ccccc1)S(=O)(=O)c1cccc(C(=O)Nc2cc(C)ccn2)c1
AC50 [11]: 4.92 µM (active)
AC50 [12]: 4.09 µM (active)
AC50 [10]: 32.2 µM (active)
CC50 [13]: 21.8 µM (active)
IC50 (cells [14]): 38.5 µM (active)
AC50 [15]: 3.95 µM (active)

C[C@@H]1CN([C@@H](C)CO)C(=O)c2cc(Br)cnc2O[C@H]1CN(C)Cc1ccc2c(c1)OCO2
IC50 [16]: > 20 µM (inactive)

CCCCCn1c(=O)[nH]c2cc(C(=O)NCCN3C(C)CCCC3C)ccc2c1=O (stereo unspecified)
AC50 [8]: 2.22 µM (active)

COc1cc(/C=C2/SC(=S)N(CC(=O)O)C2=O)ccc1OCC(=O)Nc1ccc(C)c(C)c1
IC50 [3]: 4.32 µM (active)
IC50 [4]: 3.64 µM (active)
IC50 [5]: 6.72 µM (active)
IC50 [6]: 16.5 µM (active)

CC/C(NCc1ccco1)=C1/C(=O)NC(=O)N(C2CCCCC2)C1=O
EC50 [17]: > 260 µM (inactive)
IC50 [18]: > 122 µM (inactive)
IC50 [19]: > 122 µM (inactive)

O=C(C1CCOCC1)N1C[C@H]2[C@@H](c3ccccc31)[C@@H](CO)N2Cc1ccccc1Cl
AC50 (HeLa): > 52 µM (inactive)

COc1ccc(-c2cc(NC=O)c3ncc(-c4ccc(OC)c(OC)c4)n3c2)c(OC)c1
IC50 (cells [20]): > 67.6 µM (inactive)
IC50 [21]: > 67.6 µM (inactive)

Cc1ccccc1C(=O)N[C@H](C(=O)N1CCC[C@H]1C(=O)NCCc1ccccc1Cl)C(C)C
EC50 [22]: 1.64 µM (active)
IC50 [23]: 3.15 µM (active)
EC50 (cells [24]): > 29.9 µM (inactive)
IC50 (cells [25]): > 3.32 µM (active)

Cc1ccc(N2CCN(C(CCc3ccccc3)C(=O)Nc3c(C)cccc3C)CC2)cc1 (stereo unspecified)
AC50 (HeLa): > 52 µM (inactive)

CCc1ccccc1S(=O)(=O)Cc1ccc(C(=O)NCCc2ccccc2)o1
EC50 [22]: 4.46 µM (active)
IC50 [23]: 6.38 µM (active)
EC50 (cells [24]): > 29.9 µM (inactive)
IC50 (cells [25]): 20 µM (inactive)
